The test system of one data set is CCRF-CEM. Put plainly: (§1) Cytotoxicity against human CEM cells assessed as growth inhibition by CellTiter 96 non-radioactive cell proliferation colorimetric assay. It counts as cell-based. The settings on record: ccrf-cem.
Another data set deals with PBMC. As to the kind of experiment: (§2) Cytotoxicity against human PBMC assessed as growth inhibition by CellTiter 96 non-radioactive cell proliferation colorimetric assay. The class given is cell-based.
Another data set concerns Vero. As to the kind of experiment: (§3) Cytotoxicity against African green monkey Vero cells assessed as growth inhibition by CellTiter 96 non-radioactive cell proliferation colorimetric assay. It counts as cell-based. The settings on record: chlorocebus sabaeus, vero.
The test system of a further data set is Hepatitis B virus. Put plainly: Antiviral activity against HBV infected in human HepAD38 cells assessed as inhibition of DNA replication after 5 days by RT-PCR method. It counts as functional, cell-based. The settings on record: HePAD38, 120 h.
Another data set concerns HepG2. Put plainly: (§4) Cytotoxicity against human HepG2 cells assessed as growth inhibition by CellTiter 96 non-radioactive cell proliferation colorimetric assay. The class given is cell-based. The settings on record: hepg2.
Data set [1] is described as follows: as §1. The settings on record: CEM cells (CCRF-CEM). It counts as cell-based, CCRF-CEM.
Data set [2] in a line: as §2. The class given is cell-based.
Data set [3] in a line: as §3. It counts as cell-based. The settings on record: chlorocebus sabaeus, Vero cells.
A short description of data set [4]: as §4. The settings on record: HepG2 cells. It counts as cell-based.

For the molecule `CC1(C)CC(=O)c2c(Cc3ccccc3)nc(-c3ccccn3)nc2C1`, the CC50 with CCRF-CEM was determined as 21 µM; in the data set with PBMC it was 43 µM; in the data set on Vero it was 53 µM; with HepG2 it was 47 µM. Also, in the data set on Hepatitis B virus, the EC50 is greater than 10 µM.

Consider `COC(=O)C1=C(C)NC(c2ccccn2)=NC1Cc1ccccc1` (stereo unspecified), for which the CC50 in the data set with CCRF-CEM was 61 µM; in the data set with PBMC, 52 µM; in the data set on Vero it was greater than 100 µM; in the data set on HepG2, greater than 100 µM. Further, the EC50 with Hepatitis B virus was greater than 10 µM.

`COC(=O)c1c(Cc2ccccc2)nc(-c2ccccn2)nc1CN1CCOCC1`: the CC50 in the data set on CCRF-CEM is 2 µM; with PBMC, 81 µM; in the data set with Vero it was 59 µM; with HepG2, greater than 100 µM. Besides, the 50% effective concentration (EC50) in the data set on Hepatitis B virus is greater than 10 µM.

Consider `COC(=O)C1=C(CN2CCN(C)CC2)NC(c2ccccn2)=NC1Cc1ccccc1` (stereo unspecified), for which the CC50 in the data set on CCRF-CEM is 17 µM; in the data set on PBMC, greater than 100 µM; with Vero, 76 µM; in the data set on HepG2, 14 µM. For the same molecule, the EC50 in the data set on Hepatitis B virus is greater than 10 µM.

Take `CCS(=O)(=O)CC1=C(C(=O)OC)C(c2ccc(F)cc2Cl)N=C(c2ccccn2)N1` (stereo unspecified): the CC50 in the data set with CCRF-CEM was 39 µM; in the data set with PBMC, greater than 100 µM; with Vero, greater than 100 µM; in the data set on HepG2, greater than 100 µM. Also, the EC50 in the data set on Hepatitis B virus is greater than 10 µM.

As for `CC(=O)NC1=C(CN2CCOCC2)NC(c2ccccn2)=NC1c1ccc(F)cc1Cl` (stereo unspecified), the half-maximal cytotoxic concentration (CC50) is 69 µM in the data set on CCRF-CEM, 28 µM in the data set with PBMC, 18 µM in the data set with Vero and greater than 100 µM in the data set with HepG2. The EC50 with Hepatitis B virus was greater than 10 µM.

As for `CC1=C(C(=O)SC(C)C)C(c2ccc(F)cc2Cl)N=C(c2ccccn2)N1` (stereo unspecified), the CC50 was 13 µM with CCRF-CEM, 31 µM in the data set on PBMC, 40 µM with Vero and greater than 100 µM with HepG2. Besides, the EC50 in the data set on Hepatitis B virus was greater than 10 µM.

As to `Fc1ccc(C2N=C(c3ccccn3)NC(CN3CCOCC3)=C2I)c(Cl)c1` (stereo unspecified), the CC50 with CCRF-CEM was 11 µM; in the data set with PBMC it was greater than 100 µM; with Vero, 45 µM; in the data set with HepG2 it was greater than 100 µM. Besides, the EC50 in the data set on Hepatitis B virus amounted to 4 µM.

Take `Fc1ccc(C2N=C(c3nccs3)NC(CN3CCOCC3)=C2I)c(Br)c1` (stereo unspecified): the CC50 in the data set with CCRF-CEM is 33 µM; in the data set with PBMC, 75 µM; with Vero, greater than 100 µM; in the data set with HepG2, greater than 100 µM. In addition, in the data set with Hepatitis B virus, the 50% effective concentration (EC50) turned out to be 5.7 µM.

With `COC(=O)C1=C(CN2CCOCC2)NC(c2ccccn2)=NC1c1ccc(F)cc1Cl` (racemic), the CC50 in the data set on CCRF-CEM, in the data set on PBMC, in the data set on Vero and in the data set on HepG2 was greater than 100 µM throughout. Moreover, the EC50 with Hepatitis B virus was in the range of 0.45 to 0.5 µM.

Take `COC(=O)c1c(Cc2ccc(F)cc2Cl)nc(-c2ccccn2)nc1CN1CCOCC1`: the CC50 in the data set with CCRF-CEM was 11 µM; with PBMC, 34 µM; in the data set on Vero, 71 µM; with HepG2, 69 µM. Also, the EC50 in the data set on Hepatitis B virus was greater than 10 µM.

For the molecule `COC(=O)C1=C(Cn2cc[n+](C)c2)NC(c2ccccn2)=NC1c1ccc(F)cc1Cl` (stereo unspecified), the CC50 in the data set on CCRF-CEM is 23 µM; in the data set with PBMC, 44 µM; in the data set on Vero, greater than 100 µM; with HepG2 it was greater than 100 µM. Further, in the data set on Hepatitis B virus, the EC50 is greater than 10 µM.

With `CC1=C(C(=O)OCC(F)(F)F)C(c2ccc(F)cc2Cl)N=C(c2ccccn2)N1` (stereo unspecified), the CC50 was 4 µM in the data set on CCRF-CEM, greater than 100 µM with PBMC, 65 µM in the data set with Vero and greater than 100 µM in the data set with HepG2. Also, the EC50 with Hepatitis B virus was greater than 10 µM.

In the case of `CCOC(=O)C1=C(CN2CCOCC2)NC(c2nccs2)=NC1c1ccc(F)cc1Br` (racemic), in the data set on Hepatitis B virus, the EC50 is 0.3 µM.

For `Nc1ccn([C@@H]2CS[C@H](CO)O2)c(=O)n1` [LAMIVUDINE], the cytotoxic concentration (CC50) in data set [1] was greater than 100 µM; in [2], greater than 100 µM; in data set [3], greater than 100 µM; in data set [4], 10 to 100 µM. The 50% effective concentration (EC50) in the data set with Hepatitis B virus was found to be 0.04 µM.

For `CC(=O)NC1=C(C)NC(c2ccccn2)=NC1c1ccc(F)cc1Cl` (stereo unspecified), the CC50 was greater than 100 µM with CCRF-CEM, greater than 100 µM in the data set on PBMC, greater than 100 µM with Vero and 80 µM in the data set on HepG2. In the data set with Hepatitis B virus, the EC50 is greater than 10 µM.

Turning to `COC(=O)C1=C(CN=[N+]=[N-])NC(c2ccccn2)=NC1c1ccc(F)cc1Cl` (stereo unspecified), the CC50 is greater than 100 µM in the data set on CCRF-CEM, greater than 100 µM with PBMC, 56 µM in the data set with Vero and greater than 100 µM with HepG2. The EC50 in the data set on Hepatitis B virus stood at 5.3 µM.

In the case of `COC(=O)c1c(C)nc(-c2ccccn2)nc1Cc1ccccc1`, the CC50 with CCRF-CEM came to 4 µM; in the data set on PBMC, 67 µM; in the data set on Vero, 61 µM; in the data set with HepG2 it was 41 µM. Also, the EC50 in the data set with Hepatitis B virus was greater than 10 µM.

Turning to `CCOP(=O)(CC1=C(C(=O)OC)C(c2ccc(F)cc2Cl)N=C(c2ccccn2)N1)OCC` (stereo unspecified), the CC50 with CCRF-CEM was 15 µM; in the data set with PBMC, 65 µM; in the data set on Vero it was 43 µM; with HepG2, greater than 100 µM. For the same molecule, the EC50 in the data set with Hepatitis B virus was greater than 10 µM.

Regarding `CC1(C)CC(=O)c2c(Cc3ccc(F)cc3Cl)nc(-c3ccccn3)nc2C1`, the CC50 was found to be 9 µM in the data set with CCRF-CEM, 69 µM with PBMC, 29 µM in the data set on Vero and 42 µM in the data set with HepG2. For the same molecule, the EC50 in the data set with Hepatitis B virus was greater than 10 µM.

For the molecule `CC1(C)CC(=O)C2=C(C1)NC(c1cccnc1)=NC2c1ccc(F)cc1Cl` (racemic), the CC50 with CCRF-CEM, in the data set on PBMC, with Vero and with HepG2 was greater than 100 µM each time. Also, in the data set on Hepatitis B virus, the EC50 is greater than 10 µM.

As for `COC(=O)C1=C(CSc2ccccc2)NC(c2ccccn2)=NC1Cc1ccccc1` (stereo unspecified), the CC50 in the data set with CCRF-CEM was 5 µM; in the data set with PBMC, greater than 100 µM; with Vero, greater than 100 µM; in the data set with HepG2, 96 µM. Besides, the EC50 in the data set on Hepatitis B virus was greater than 10 µM.

Consider `CC1=C(I)C(c2ccc(F)cc2Cl)N=C(c2ccccn2)N1` (stereo unspecified), for which the CC50 with CCRF-CEM was 74 µM; with PBMC, 80 µM; in the data set on Vero it was 29 µM; in the data set on HepG2, greater than 100 µM. The EC50 in the data set with Hepatitis B virus came out at 4.1 µM.

As to `CC1(C)CC(=O)c2c(Cc3ccc(F)cc3Cl)nc(-c3cccnc3)nc2C1`, the CC50 in the data set with CCRF-CEM is 86 µM; with PBMC it was greater than 100 µM; in the data set with Vero, no less than 100 µM; in the data set with HepG2, greater than 100 µM. Moreover, in the data set on Hepatitis B virus, the EC50 was greater than 10 µM.

Consider `COCCOCc1nc(-c2ccccn2)nc(Cc2ccccc2)c1C(=O)OC`, for which the CC50 with CCRF-CEM is 55 µM; with PBMC, 99 µM; with Vero, 87 µM; in the data set with HepG2, no less than 100 µM. Moreover, the EC50 with Hepatitis B virus is greater than 10 µM.

In the case of `CC1=C(C(=O)NS(=O)(=O)N(C)C)C(c2ccc(F)cc2Cl)N=C(c2ccccn2)N1` (stereo unspecified), the CC50 in the data set on CCRF-CEM is greater than 100 µM; in the data set on PBMC it was greater than 100 µM; in the data set on Vero it was no less than 100 µM; with HepG2, greater than 100 µM. The EC50 in the data set on Hepatitis B virus is greater than 10 µM.

Regarding `CC1=C(I)C(c2ccc(F)cc2Br)N=C(c2nccs2)N1` (stereo unspecified), the CC50 with CCRF-CEM is 33 µM; in the data set on PBMC, 80 µM; in the data set on Vero it was greater than 100 µM; with HepG2, greater than 100 µM. Moreover, in the data set with Hepatitis B virus, the concentration for a half-maximal effect (EC50) was 7.1 µM.

On to `COC(=O)c1c(Cc2ccccc2)nc(-c2ccccn2)nc1CN1CCN(C)CC1`, for which the CC50 in the data set with CCRF-CEM was 86 µM; in the data set on PBMC, greater than 100 µM; with Vero, greater than 100 µM; in the data set on HepG2, greater than 100 µM. Also, the EC50 in the data set on Hepatitis B virus is greater than 10 µM.

Take `COC(=O)c1c(CSc2ccccc2)nc(-c2ccccn2)nc1Cc1ccccc1`: the CC50 is 9 µM in the data set with CCRF-CEM, 65 µM in the data set with PBMC, 12 µM in the data set on Vero and greater than 100 µM in the data set with HepG2. In the data set with Hepatitis B virus, the EC50 is greater than 10 µM.

Take `CC1=C(Br)C(c2ccc(F)cc2Cl)N=C(c2ccccn2)N1` (stereo unspecified): the CC50 was 23 µM in the data set on CCRF-CEM, greater than 100 µM with PBMC, 16 µM in the data set with Vero and 79 µM in the data set with HepG2. Besides, the EC50 with Hepatitis B virus stood at 5.2 µM.

For `COC(=O)C1=C(CS(=O)(=O)Cc2ccc(C)cc2)NC(c2ccccn2)=NC1c1ccc(F)cc1Cl` (stereo unspecified), the CC50 is 47 µM in the data set on CCRF-CEM, 67 µM with PBMC, no less than 100 µM in the data set on Vero and greater than 100 µM in the data set on HepG2. In the data set on Hepatitis B virus, the EC50 was greater than 10 µM.

Regarding `CCCC[n+]1ccn(CC2=C(C(=O)OC)C(c3ccc(F)cc3Cl)N=C(c3ccccn3)N2)c1` (stereo unspecified), the CC50 in the data set on CCRF-CEM is 3 µM; in the data set on PBMC it was 20 µM; with Vero it was greater than 100 µM; in the data set with HepG2, 14 µM. Moreover, the concentration giving a half-maximal response (EC50) in the data set on Hepatitis B virus is greater than 10 µM.

With `CC1(C)CC(=O)c2c(Cc3ccc(F)cc3Cl)nc(-c3ccncc3)nc2C1`, the CC50 in the data set with CCRF-CEM is no less than 100 µM; in the data set on PBMC, greater than 100 µM; in the data set on Vero, 10 µM; in the data set with HepG2 it was no less than 100 µM. Also, in the data set with Hepatitis B virus, the EC50 was greater than 10 µM.

For `CC1=C(Cl)C(c2ccc(F)cc2Cl)N=C(c2ccccn2)N1` (stereo unspecified), the CC50 with CCRF-CEM was 44 µM; in the data set on PBMC, greater than 100 µM; in the data set with Vero, 13 µM; in the data set on HepG2, 98 µM. Moreover, the 50% effective concentration (EC50) with Hepatitis B virus is greater than 10 µM.

Values taken from ChEMBL document CHEMBL4000234, “Synthesis and antiviral evaluation of novel heteroarylpyrimidines analogs as HBV capsid effectors” (Bioorg Med Chem Lett, 2017).
